{"source": "patent US7988998B2", "about": "“Sustained-release tramadol formulations with 24-hour efficacy” (Labopharm Inc., priority 2002, dated 2011)", "origin": "cited, not measured here", "conditions": "patients receiving tramadol HCl", "note": "Counter-ions that a name gives are not always drawn.", "data": [{"smiles": "COc1cccc(C2(O)CCCCC2CN(C)C)c1", "note": "(stereo not shown) [tramadol HCl, Tramadol hydrochloride]", "values": [{"measurement": "estimated incidence of seizures", "value": "less than 1%"}]}]}
